According to PubChem BioAssay (NCI):
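Interpolation was linear, between the two tested concentrations surrounding the appropriate level; five concentrations were tested over 48 hours in 96-well plates. TGI denotes the concentration required for complete inhibition of growth.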

Tests used:
Test in all cases: NCI-60 cell line screen, 48 h
786-0 renal = system: 786-0 renal
A498 renal = system: A498 renal
A549 NSCLC = system: A549 NSCLC
ACHN renal = system: ACHN renal
CAKI-1 renal = system: CAKI-1 renal
CCRF-CEM leukemia = system: CCRF-CEM leukemia
COLO 205 colon = system: COLO 205 colon
DLD-1 colon = system: DLD-1 colon
DMS 114 small cell lung = system: DMS 114 small cell lung
DMS 273 small cell lung = system: DMS 273 small cell lung
EKVX NSCLC = system: EKVX NSCLC
HCC-2998 colon = system: HCC-2998 colon
HCT-116 colon = system: HCT-116 colon
HCT-15 colon = system: HCT-15 colon
HL-60(TB) leukemia = system: HL-60(TB) leukemia
HOP-62 NSCLC = system: HOP-62 NSCLC
HT29 colon = system: HT29 colon
K-562 leukemia = system: K-562 leukemia
KM12 colon = system: KM12 colon
KM20L2 colon = system: KM20L2 colon
LOX IMVI melanoma = system: LOX IMVI melanoma
LXFL 529 NSCLC = system: LXFL 529 NSCLC
M14 melanoma = system: M14 melanoma
M19-MEL melanoma = system: M19-MEL melanoma
MALME-3M melanoma = system: MALME-3M melanoma
MOLT-4 leukemia = system: MOLT-4 leukemia
NCI-H226 lung = system: NCI-H226 lung
NCI-H23 lung = system: NCI-H23 lung
NCI-H460 lung = system: NCI-H460 lung
NCI-H522 lung = system: NCI-H522 lung
OVCAR-3 ovarian = system: OVCAR-3 ovarian
OVCAR-4 ovarian = system: OVCAR-4 ovarian
OVCAR-5 ovarian = system: OVCAR-5 ovarian
OVCAR-8 ovarian = system: OVCAR-8 ovarian
RPMI-8226 leukemia = system: RPMI-8226 leukemia
RXF 393 renal = system: RXF 393 renal
SF-268 CNS = system: SF-268 CNS
SF-295 CNS = system: SF-295 CNS
SF-539 CNS = system: SF-539 CNS
SK-MEL-28 melanoma = system: SK-MEL-28 melanoma
SK-MEL-5 melanoma = system: SK-MEL-5 melanoma
SK-OV-3 ovarian = system: SK-OV-3 ovarian
SN12C renal = system: SN12C renal
SNB-19 CNS = system: SNB-19 CNS
SNB-75 CNS = system: SNB-75 CNS
SNB-78 CNS = system: SNB-78 CNS
SR leukemia = system: SR leukemia
TK-10 renal = system: TK-10 renal
U251 CNS = system: U251 CNS
UACC-257 melanoma = system: UACC-257 melanoma
UACC-62 melanoma = system: UACC-62 melanoma
UO-31 renal = system: UO-31 renal
XF 498 CNS = system: XF 498 CNS
HOP-92 NSCLC = system: HOP-92 NSCLC
IGROV1 ovarian = system: IGROV1 ovarian
SK-MEL-2 melanoma = system: SK-MEL-2 melanoma

Measured: TGI

C1OCC2S[C@@H]3COCO[C@@H]3C2O1 (stereo not given in full)
not listed: HOP-92 NSCLC | IGROV1 ovarian | SK-MEL-2 melanoma
> 100 µM: all other assays above

CCCNC1CC(n2cc(C)c(=O)[nH]c2=O)OC1CO (stereo not given)
not listed: A498 renal | A549 NSCLC | EKVX NSCLC | HCT-15 colon | HT29 colon | KM12 colon | KM20L2 colon | LOX IMVI melanoma | OVCAR-3 ovarian | OVCAR-5 ovarian | OVCAR-8 ovarian | RXF 393 renal | SF-295 CNS | SK-MEL-5 melanoma | SNB-19 CNS | TK-10 renal | U251 CNS | UACC-257 melanoma | XF 498 CNS
> 100 µM: all other assays above
